Data set [1] can be described thus: pH-response fluorescence spectra. Type of data set: physicochemical. The conditions noted are these: pH dependence; for fluorescence intensity in the visible light region: excitation 420 nm, PBS buffer with 1% DMSO; for fluorescence emission intensity in the near-infrared region: excitation 760 nm (LET-H, LET-I), 660 nm (LET-Hcy-N). Here is the method:
The photosensitizers prepared in the Embodiments 1-8 were individually dissolved in dimethyl sulfoxide to prepare 10 mM photosensitizer stock solution, which were stored at 4 °C for subsequent use. All experiments were conducted in PBS buffer (1 ×) containing 1% DMSO. 2 µL of the photosensitizer stock solution was added to 2 mL of PBS buffer solutions at different pH values. Absorption spectra and fluorescence spectra of each photosensitizer under various pH conditions were recorded using ultraviolet-visible spectrophotometry and fluorescence spectrophotometry.

A short description of data set [2]: Singlet oxygen detection by ESR/EPR spectroscopy with TEMP as trapping agent. The data set is classed as physicochemical. The note with it: near-infrared irradiation. Here is the method:
Singlet oxygen generation and characterization were further analyzed by electron spin resonance (ESR) spectroscopy. Using photosensitizers LET-H' and LET-I' as examples, 2,2,6,6-tetramethyl-4-piperidone hydrochloride (TEMP) was employed as the singlet oxygen trapping agent. Two groups of photosensitizer stock solutions were prepared and diluted with TEMP added, one group remained untreated, while another was irradiated with the near-infrared laser, and a blank control group was also prepared for comparison.

Data set [3] can be described thus: Singlet oxygen generation assay with DPBF as trapping agent. Type of data set: physicochemical. The note with it: 808 nm laser irradiation, 0.2 W cm^-2; DMSO. Here is the method:
The photosensitizers LET-R (R = H, Cl, Br, I) prepared in the Embodiments 1-4 were assessed. 1,3-Diphenylisobenzofuran (DPBF) was selected as a singlet oxygen trapping agent to determine a singlet oxygen generation capability of each photosensitizer molecule.
A 1 mM DPBF stock solution was first prepared for use. An appropriate volume of freshly prepared DPBF solution was then added to DMSO to adjust the absorbance at 415 nm to approximately 1.0, followed by addition of photosensitizer solution at appropriate concentration. The ultraviolet-visible absorption spectra were measured after different irradiation times with a near-infrared laser. The singlet oxygen generation capability of each photosensitizer was evaluated by monitoring the absorbance changes of DPBF at 415 nm.

Data set [4] is described as follows: Singlet oxygen quantum yield with ICG as reference standard. The data set is classed as physicochemical. The conditions noted are these: DPBF in dichloromethane, near-infrared laser. Here is the method: Using indocyanine green (ICG) as a reference standard, the singlet oxygen quantum yields of photosensitizers LET-R (R = H, Cl, Br, I) were determined. At first, an appropriate volume of freshly prepared DPBF solution was added to dichloromethane to adjust the absorbance at 415 nm to approximately 1.0, followed by addition of test solution (photosensitizer or ICG) at optimized concentration. Samples were then irradiated with a near-infrared laser, and time-dependent ultraviolet-visible spectral changes were recorded. The singlet oxygen quantum yield was calculated using Formula (1): ΦΔ = […] [formula]
ΦΔ represents the singlet oxygen quantum yield of test molecules, and ΦICG represents the singlet oxygen quantum yield of ICG. "ps" represents the photosensitizer under investigation, while k represents a slope of DPBF absorbance decay at 415 nm over time. And correction factor F is calculated using Formula (2): […] [formula]
In Formula (2), OD represents the absorbance of solutions at a laser wavelength.

Data set [5] concerns murine mammary carcinoma cells (4T1 cell line). Nature of the data set: Photodynamic efficacy at cellular level, cell viability assay. Type of data set: cell-based. The note with it: Mus musculus, light or radiation study, 4T1 cells, 6 hours incubation, 808 nm (0.2 W/cm^2) laser, 20 minutes irradiation. Here is the method:
The photodynamic therapeutic efficacy was evaluated using standardized […] assay protocols to assess the effects of photosensitizer molecules on viability of murine mammary carcinoma cells (4T1 cell line).
Cell culture was performed using Dulbecco's Modified Eagle Medium (DMEM) high glucose supplemented with 10% fetal bovine serum (FBS) and 1% antibiotic-antimycotic solution (penicillin-streptomycin mixture), and maintained in a humidified incubator at 37 °C with 5% CO2. Experimental procedures were initiated when cell density reached 80% confluency. Using photosensitizers LET-H and LET-I as examples, 4T1 cells were seeded in 96-well plates (100 µL, 5×10^3 cells/well) and cultured for 24 hours, then original medium was discarded and replaced with medium containing photosensitizer molecules at a concentration of 20 µM. After 6 hours of incubation, the medium in each well was replaced with fresh medium, and irradiated with an 808 nm (0.2 W/cm^2) laser for different times (0, 5, 10 and 20 min), and placed back in cell culture incubator for continued incubation. After irradiation, the plates were returned to the incubator for continued culture. After 12 hours of incubation, 10 µL of CCK-8 solution was added to each well, and the plates were incubated for one additional hour. Absorbance was subsequently measured at 450 nm using a microplate reader.

Each structure is given as a SMILES string.

One may read the viability as a per cent measure of how many cells are alive, often set against a control. The low end stands for more harm to the cells, the high end for less harm to the cells.

Consider `CC1(C)C(=CC=C2CCCC(C=CC34OCCCN3c3ccccc3C4(C)C)=C2Cl)N(CCCO)c2ccccc21` (stereo not shown) [LET-H], for which, in data set [1], the “fluorescence intensity in the visible light region” value is listed as “decreased with increasing pH” and the “fluorescence emission intensity in the near-infrared region” value (shortened to “fluorescence emission intensity”) is “enhanced fluorescence emission intensity at higher pH values”. In addition, the “EPR spectrum, singlet oxygen production” value in data set [2] is recorded as “three isointense paramagnetic resonance peaks (1:1:1)”.

On to `CCN(CC)c1ccc2c(c1)OC1=C(C=CC34OCCCN3c3ccccc3C4(C)C)CCCC1=C2` (stereo not shown) [LET-Hcy-N], for which the “fluorescence emission intensity” value in data set [1] was “enhanced fluorescence emission intensity at higher pH values”.

For the molecule `CC1(C)C(=CC=C2CCCC(C=CC34OCCCN3c3ccc(I)cc3C4(C)C)=C2Cl)N(CCCO)c2ccc(I)cc21` (stereo not shown) [LET-I], in data set [1], the “fluorescence intensity in the visible light region” value is listed as “decreased with increasing pH” and the “fluorescence emission intensity” value is listed as “enhanced fluorescence emission intensity at higher pH values”. The “singlet oxygen generation capability (DPBF degradation, absorbance at 415 nm)” value in data set [3] was “superior singlet oxygen generation efficiency”. Also, the “singlet oxygen quantum yield” value in data set [4] is “superior singlet oxygen generation capability”. In data set [2], the “EPR spectrum, singlet oxygen production” value is given as “three isointense paramagnetic resonance peaks (1:1:1)”. The viability at 20 µM in data set [5] is under 30%.

The values are drawn from patent publication EP4635513A1, “NEAR-INFRARED PHOTOSENSITIZER THAT CAN BE ACTIVATED IN SLIGHTLY ACIDIC TUMOR ENVIRONMENT AND PREPARATION METHOD THEREFOR AND USE THEREOF” (Shenzhen University, priority 2024, dated 2025).
